Data reported in the supplement of paper PMC13380429.

Key:
Settings in all cases: 72 h
Caco-2 [1] = test: cell viability relative to DMSO; higher = less toxic
HepG2 [2] = test: as above
Vero E6 [3] = test: as above
Caco-2 [4] = test: relative viability EC50 (midpoint between 100% and the lowest measured viability); higher = less toxic
HepG2 [5] = test: as above
Vero E6 [6] = test: as above
Caco-2 [7] = test: drug sensitivity score (DSS) for viability; higher = more toxic; extreme values may be limits of the assay
HepG2 [8] = test: as above
Vero E6 [9] = test: as above
U2OS [10] = test: cell viability relative to DMSO; higher = less toxic
U2OS [11] = test: relative viability EC50 (midpoint between 100% and the lowest measured viability); higher = less toxic
U2OS [12] = test: drug sensitivity score (DSS) for viability; higher = more toxic; extreme values may be limits of the assay
Calu-3 [13] = test: cell viability relative to DMSO; higher = less toxic
Calu-3 [14] = test: relative viability EC50 (midpoint between 100% and the lowest measured viability); higher = less toxic
Calu-3 [15] = test: drug sensitivity score (DSS) for viability; higher = more toxic; extreme values may be limits of the assay

Structure (SMILES)	cell viability (Caco-2 [1]; 1 nM) [%]	cell viability (Caco-2 [1]; 10 nM) [%]	cell viability (Caco-2 [1]; 100 nM) [%]	cell viability (Caco-2 [1]; 1000 nM) [%]	cell viability (Caco-2 [1]; 10000 nM) [%]	cell viability (HepG2 [2]; 1 nM) [%]	cell viability (HepG2 [2]; 10 nM) [%]	cell viability (HepG2 [2]; 100 nM) [%]	cell viability (HepG2 [2]; 1000 nM) [%]	cell viability (HepG2 [2]; 10000 nM) [%]	cell viability (Vero E6 [3]; 1 nM) [%]	cell viability (Vero E6 [3]; 10 nM) [%]	cell viability (Vero E6 [3]; 100 nM) [%]	cell viability (Vero E6 [3]; 1000 nM) [%]	cell viability (Vero E6 [3]; 10000 nM) [%]	relative viability EC50 (Caco-2 [4]) [µM]	relative viability EC50 (HepG2 [5]) [µM]	relative viability EC50 (Vero E6 [6]) [µM]	drug sensitivity score (Caco-2 [7])	drug sensitivity score (HepG2 [8])	drug sensitivity score (Vero E6 [9])	cell viability (U2OS [10]; 1 nM) [%]	cell viability (U2OS [10]; 10 nM) [%]	cell viability (U2OS [10]; 100 nM) [%]	cell viability (U2OS [10]; 1000 nM) [%]	cell viability (U2OS [10]; 10000 nM) [%]	relative viability EC50 (U2OS [11]) [µM]	drug sensitivity score (U2OS [12])	cell viability (Calu-3 [13]; 1 nM) [%]	cell viability (Calu-3 [13]; 10 nM) [%]	cell viability (Calu-3 [13]; 100 nM) [%]	cell viability (Calu-3 [13]; 1000 nM) [%]	cell viability (Calu-3 [13]; 10000 nM) [%]	relative viability EC50 (Calu-3 [14]) [µM]	drug sensitivity score (Calu-3 [15])
CN(CCCN1c2ccccc2CCc2ccccc21)CC(=O)c1ccc(Cl)cc1 [lofepramine]	103	107	101	94.9	92	105	105	102	96.9	106	99	102	97.2	101	101	> 10	> 10	> 10	0	0	0	–	–	–	–	–	–	–	–	–	–	–	–	–	–
C/C(=C\CNc1ncnc2[nH]cnc12)CO [zeatin]	94.1	104	88.1	92.5	101	94.7	92.9	108	102	110	95.7	99.4	97	100	107	> 10	> 10	> 10	0	0	0	96.8	99.4	95.4	98.9	102	> 10	0	–	–	–	–	–	–	–
CN1CCCN=C1/C=C/c1cccs1 [pyrantel-pamoate]	93.3	94.8	98.8	96	100	97.4	106	103	104	92.6	107	99.9	96.4	101	99.4	> 10	> 10	> 10	0	0	0	99.6	96.9	99.1	95.3	101	> 10	0	–	–	–	–	–	–	–
CC(C)C[C@H](NC(=O)[C@@H]1CCCN1)C(=O)NCC(N)=O [prolylleucylglycinamide]	95	95.1	98.1	96	96.6	109	107	107	99.2	107	102	105	102	103	98.2	> 10	> 10	> 10	0	0	0	–	–	–	–	–	–	–	97.1	96.3	99.4	106	104	> 10	0
CN1C(=O)N(c2cc(Cl)cc(Cl)c2)C(=O)[C@]12CN(Cc1cc(C(=O)O)cs1)C[C@H]2c1ccc(C#N)cc1	109	94.8	100	103	93.7	101	112	109	98.1	104	98.3	101	95.5	96.6	105	> 10	> 10	> 10	0	0	0	104	97.8	101	103	100	> 10	0	–	–	–	–	–	–	–
OCc1c[nH]c2ccccc12 [indole-3-carbinol]	103	103	99	97.8	87.4	105	96	99.9	88.1	101	104	97.1	93.1	99.2	97.5	> 10	> 10	> 10	0.2	0	0	99.9	101	99.3	104	93.7	> 10	0	–	–	–	–	–	–	–
CCN(CC)CCNC(=O)c1cc(S(C)(=O)=O)ccc1OC [tiapride]	104	93.5	95.9	100	101	102	103	94.2	103	97.5	99.9	100	103	99.5	104	> 10	> 10	> 10	0	0	0	–	–	–	–	–	–	–	97.5	89.2	101	106	100	> 10	0
CCc1c(O)cc(O)c(C(=O)c2ccc(OCCN3CCOCC3)c(OC)c2)c1CC(=O)N(CCOC)CCOC [KW-2478]	110	96.3	101	77.6	46.5	108	103	109	69.1	5.8	98.6	103	96.1	99.1	100	1.14	1.33	> 10	5.9	9.6	0	98.8	95.3	100	98.3	47.5	2.93	3	104	110	100	76.9	53.4	–	5.4
COc1ccc2[nH]c3c(-c4cccc5ccccc45)nccc3c2c1 [SP-141]	91.8	103	99.2	60	39.5	102	101	95.9	47.8	42.8	95.5	101	97.8	39.1	29.2	0.741	0.332	0.453	8.1	10.2	11.5	110	109	106	53.9	21.3	0.873	9.9	98.7	106	105	67.4	67.2	–	5.3
C[C@H](N)[C@H](O)c1ccc(O)c(O)c1 [levonordefrin]	97.8	89.7	96.8	88.6	93.8	105	105	97	96.8	93.9	109	109	103	108	91.9	> 10	> 10	> 10	0	0	0	–	–	–	–	–	–	–	102	96.8	98	104	100	> 10	0
O=c1[nH]cnc2ccccc12 [4-HQN]	86.3	94.6	91	101	107	104	86.9	113	99.1	108	99.9	93.8	94.8	92.1	100	> 10	> 10	> 10	0	0	0	95.2	98.7	94.5	101	102	> 10	0	–	–	–	–	–	–	–
O=C1CN2Cc3c(ccc(Cl)c3Cl)N=C2N1 [anagrelide]	101	97.8	97.6	99.8	96.9	101	102	104	101	96.7	106	107	103	102	99.3	> 10	> 10	> 10	0	0	0	–	–	–	–	–	–	–	–	–	–	–	–	–	–
COc1cc2ncnc(Nc3ccc(F)c(Cl)c3)c2cc1NC(=O)/C=C/CN1CCCCC1 [dacomitinib]	95.3	89.6	90.6	69.3	71.2	104	97.8	91.3	97	37.8	99.6	92.7	59.5	48.2	39.5	–	2.79	0.0579	5.6	3.8	15.8	94.3	97.3	94.5	94.7	43.6	2.39	3.9	83.5	73.7	40.8	32.1	17	0.027	23.8
Nc1ccc2cc3ccc(N)cc3nc2c1 [proflavine-hemisulfate]	100	88.4	99	105	49.3	96.5	103	92.7	76.2	2	94.6	100	90.7	89.4	35.8	3.6	1.57	1.9	2.3	9.1	5.3	–	–	–	–	–	–	–	89.2	95.9	103	103	62.6	–	1.6
Cc1cc(C)c(N)c(C#Cc2cccc(F)c2)n1	99.6	88.9	101	93.2	71.6	95.3	98.4	81.6	88.1	90.7	99.5	106	98.6	103	90.8	–	> 10	> 10	2.2	0.7	0	102	97.5	102	97.3	90.9	> 10	0	104	102	95.9	102	87.7	> 10	0
Cn1cnc([N+](=O)[O-])c1Sc1ncnc2[nH]cnc12 [azathioprine]	110	86.8	93	92.7	92.9	95.2	89.7	93	75.1	20	94.2	96.6	94.8	96	82.7	> 10	1.46	> 10	0	7.7	0.7	104	97.9	96.2	71.9	78.9	–	5.2	94.8	93.6	93.1	94.4	98.7	> 10	0
Cc1ccc2c(c1)=C(c1ccccc1)C(C1=NN(C(=O)CCC(=O)O)C(c3ccc(Br)cc3)C1)C(=O)N=2 (stereo unspecified) [DQP-1105]	94.1	97.7	97.2	90.2	96.1	106	105	97.9	95.2	105	95.9	100	100	97.7	96.9	> 10	> 10	> 10	0	0	0	102	110	97.4	100	94.9	> 10	0	–	–	–	–	–	–	–
